Patent publication US20200360405A1, “COMPOSITIONS AND METHODS FOR REDUCING LOCAL AND SYSTEMIC RISKS OF ENVENOMATION” (THE HENRY M. JACKSON FONDATION FOR THE ADVANCEMENT OF …, priority 2017, published 2020)

Tests used:
[1] = test system: V. russelli crude venom hyaluronidase; assay: Hyaluronidase activity assay, V. russelli crude venom; type: biochemical, Vipera russelli; settings: for Effect on V. russelli venom hyaluronidase activity (in words): venom pre-incubated 5-10 minutes with increasing concentrations, Example 2
Procedure: (§1) Hyaluronidase activity was assessed using the Enzymatic Assay of Hyaluronidase (3.2.1.35) protocol from Sigma Aldrich. Briefly, equal volumes of venom were incubated with 0.03% hyaluronic acid solution (0.03% (w/v) hyaluronic acid in 300 mM sodium phosphate (approximately pH 5.35)) for 1.5 hours at 37° C. A reaction aliquot was then added to a 5-fold volume of acidic albumin solution (24 mM sodium acetate, 70 mM acetic acid, 0.1% BSA adjusted to approximately pH 3.75), allowed to stand for 10 minutes, and then absorbance at 600 nm was measured. Data was converted to percent transmission (% T) and adjusted for background signals. Venom hyaluronidase activities were determined by creating a standard curve with bovine testes hyaluronidase.
(§2) For inhibition experiments, 6.75 μg N. kaouthia or 15 μg V. russelli venom was pre-incubated with the specified spreading factor inhibitor(s) for 5-10 minutes before adding an equal volume of the reaction to the hyaluronic acid solution. Data was converted to % T, adjusted for background signals, and then normalized to the venom-only controls.
(§3) Data are shown as the mean and standard deviation (SD) of at least duplicate readings. The half maximal inhibitory concentration (IC50) values were determined using GraphPad Prism. Table 1 summarizes the inhibitory activity of various spreading factor inhibitors for N. kaouthia and V. russelli crude venom extracts.
(§4) Snake venom samples were incubated with increasing concentrations of sodium aurothiomalate and/or doxycycline for 5-10 minutes prior to assaying the venom hyaluronidase, gelatinase, and PLA2 activities. As observed in Example 1, sodium aurothiomalate inhibited N. kaouthia and V. russeiii venom hyaluronidase activities, whereas doxycycline inhibited the venom gelatinase and PLA2 activities.

[2] = test system: N. kaouthia crude venom PLA2; assay: Phospholipase A2 activity assay (EnzChek), N. kaouthia crude venom; type: biochemical, Naja naja kaouthia; settings: for Effect on N. kaouthia venom PLA2 activity (in words): venom pre-incubated 5-10 minutes with increasing concentrations, Example 2; for IC50 / PLA2 ≥90% inhibition (concentration), N. kaouthia venom: 0.4 μg venom, 10 minute time point, Example 1
Procedure: (§5) EnzChek® Phospholipase A 2 assay kits were used according to the manufacturer's recommendations. Briefly, equal volumes of venom solutions were incubated with PLA2 substrate and fluorometric analysis was performed over the course of 20 minutes. Venom activity was determined by creating a standard curve based upon PLA2 from honey bee venom.
(§6) For inhibition experiments, 0.4 μg N. kaouthia or 0.2 μg V. russelli venom was pre-incubated with the specified spreading factor inhibitor(s) for 5-10 minutes before adding the reaction to an equal volume of PLA2 substrate. Fluorometric analysis was performed over 20 minutes, with the 10 minute time point values being used to determine the percent inhibition. Background values were subtracted from all samples, and data was normalized to the venom-only controls. Excitation and emission wavelengths for these experiments were 485(20) nm and 528(20) nm, respectively.
as §3, §4

[3] = test system: N. kaouthia crude venom gelatinase; assay: Gelatinase activity assay (EnzChek), N. kaouthia crude venom; type: biochemical, Naja naja kaouthia
Procedure: (§7) EnzChek® Gelatinase/Collagenase assay kits were used according to the manufacturer's recommendations. Briefly, equal volumes of venom solutions were incubated with 1.0 mg/mL DQ gelatin and fluorometric analysis was performed for at least three hours, using excitation and emission wavelengths of 485(20) nm and 528(20) nm, respectively. Venom activity was determined by creating a standard curve with Clostridium histolyticum collagenase activity.
(§8) For inhibition experiments, 30 μg N. kaouthia or V. russelli venom was pre-incubated with the specified spreading factor inhibitor(s) for 5-10 minutes before adding an equal volume of the reaction to the 1.0 mg/mL DQ gelatin solution. Fluorometric readings were measured over the course of five hours, with the five hour time points being used to determine the percent inhibition. Data was adjusted for background signals and then normalized to the venom-only controls.
as §3, §4

[4] = test system: V. russelli crude venom PLA2; assay: Phospholipase A2 activity assay (EnzChek), V. russelli crude venom; type: biochemical, Vipera russelli; settings: for Effect on V. russelli venom PLA2 activity (in words): venom pre-incubated 5-10 minutes with increasing concentrations, Example 2; for IC50 / PLA2 ≥90% inhibition (concentration), V. russelli venom: 0.2 μg venom, 10 minute time point, Example 1
Procedure: as §5, §6, §3, §4

[5] = test system: N. kaouthia crude venom hyaluronidase; assay: Hyaluronidase activity assay, N. kaouthia crude venom; type: biochemical, Naja naja kaouthia; settings: for Effect on N. kaouthia venom hyaluronidase activity (in words): venom pre-incubated 5-10 minutes with increasing concentrations, Example 2
Procedure: as §1, §2, §3, §4

[6] = target: V. russelli crude venom gelatinase; assay: Gelatinase activity assay (EnzChek), V. russelli crude venom; type: biochemical, Vipera russelli
Procedure: as §7, §8, §3, §4

[7] = 15 μg venom, pre-incubation 5-10 min, Example 1
[8] = asterisk: data obtained according to Example 2, five hour time point
[9] = 6.75 μg venom, pre-incubation 5-10 min, Example 1
[10] = 30 μg venom, five hour time point, Example 1
[11] = venom pre-incubated 5-10 minutes with increasing concentrations, Example 2

| SMILES | Hyaluronidase ≥90% inhibition (concentration), V. russelli venom [1, 7] | Effect on V. russelli venom hyaluronidase activity (in words) [1] | Effect on N. kaouthia venom PLA2 activity (in words) [2] | Effect on V. russelli venom PLA2 activity (in words) [4] | Hyaluronidase ≥90% inhibition (concentration), N. kaouthia venom [5, 9] | Effect on N. kaouthia venom hyaluronidase activity (in words) [5] | IC50 [2] [µM] | PLA2 ≥90% inhibition (concentration), N. kaouthia venom [2] [µM] | IC50 [4] [µM] | PLA2 ≥90% inhibition (concentration), V. russelli venom [4] [µM] | other results |
| --- | --- | --- | --- | --- | --- | --- | --- | --- | --- | --- | --- |
| O=C([O-])CC([S-])C(=O)[O-].[Au+].[Na+].[Na+] (stereo not drawn) [Sodium aurothiomalate, sodium aurothiomalate] | 373.25 µM | inhibited | moderate, but statistically significant increase | moderate, but statistically significant increase | 136.30 µM | inhibited |  |  |  |  | IC50 [1, 7]: 147 µM; Gelatinase ≥90% inhibition (concentration), N. kaouthia venom [3, 8]: >208 µM; IC50 [3, 8]: 47 ± 30.4 µM; IC50 [5, 9]: 42 µM |
| CC(=O)N[C@@H](CS)C(=O)O [N-acetyl-L-cysteine] | 6.0 to 9.6 mg/mL | inhibited | consistently enhanced | consistently enhanced | 4.8 mg/mL | inhibited |  |  |  |  | Hyaluronidase IC50, V. russelli venom [1, 7]: ~4989 µg/mL; Gelatinase IC50, V. russelli venom [6, 10]: 1870 µg/mL; Gelatinase ≥90% inhibition (concentration), V. russelli venom [6, 10]: 2.31 mg/mL; Effect on V. russelli venom gelatinase activity (in words) [6, 11]: inhibited; Gelatinase IC50, N. kaouthia venom [3, 10]: 1850 µg/mL; Gelatinase ≥90% inhibition (concentration), N. kaouthia venom [3, 10]: 1.32 mg/mL; Effect on N. kaouthia venom gelatinase activity (in words) [3, 11]: inhibited; Enhancement of PLA2 activities in V. russelli venom ([4]; N-acetyl-L-cysteine alone): 3-4 fold; Hyaluronidase IC50, N. kaouthia venom [5, 9]: 4503 µg/mL |
| CC1=C(CC/C(C)=C/CCC2=CC[C@H](C3=CC(=O)O[C@H]3O)O[C@H]2O)C(C)(C)CCC1 [Manoalide] |  |  |  |  |  |  | 777 | >1000 | 31.4 | 1000 |  |
| Cc1ccc(C(=O)Nc2ccc(S(=O)(=O)O)c3cc(S(=O)(=O)O)cc(S(=O)(=O)O)c23)cc1NC(=O)c1cccc(NC(=O)Nc2cccc(C(=O)Nc3cc(C(=O)Nc4ccc(S(=O)(=O)O)c5cc(S(=O)(=O)O)cc(S(=O)(=O)O)c45)ccc3C)c2)c1 [Suramin] |  |  |  |  |  |  | 1520 ± 528 | 12500 | 2010 | 12500 |  |
